Assay results reported in PubChem BioAssay (NCI).
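In this assay, cells in 96-well plates receive the compound at five concentrations for 48 hours. Endpoints are linearly interpolated between the surrounding concentrations. TGI marks complete inhibition of growth.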

Tests used:
Test in all cases: DTP human tumour cell line panel, 48 h
[1] = system: 786-0 renal
[2] = system: A498 renal
[3] = system: A549 NSCLC
[4] = system: ACHN renal
[5] = system: CAKI-1 renal
[6] = system: CCRF-CEM leukemia
[7] = system: COLO 205 colon
[8] = system: DLD-1 colon
[9] = system: DMS 114 small cell lung
[10] = system: DMS 273 small cell lung
[11] = system: EKVX NSCLC
[12] = system: HCC-2998 colon
[13] = system: HCT-116 colon
[14] = system: HCT-15 colon
[15] = system: HL-60(TB) leukemia
[16] = system: HOP-18 NSCLC
[17] = system: HOP-62 NSCLC
[18] = system: HOP-92 NSCLC
[19] = system: HT29 colon
[20] = system: IGROV1 ovarian
[21] = system: K-562 leukemia
[22] = system: KM12 colon
[23] = system: KM20L2 colon
[24] = system: LOX IMVI melanoma
[25] = system: LXFL 529 NSCLC
[26] = system: M14 melanoma
[27] = system: M19-MEL melanoma
[28] = system: MALME-3M melanoma
[29] = system: MOLT-4 leukemia
[30] = system: NCI-H226 lung
[31] = system: NCI-H23 lung
[32] = system: NCI-H460 lung
[33] = system: NCI-H522 lung
[34] = system: OVCAR-3 ovarian
[35] = system: OVCAR-4 ovarian
[36] = system: OVCAR-5 ovarian
[37] = system: OVCAR-8 ovarian
[38] = system: RPMI-8226 leukemia
[39] = system: RXF 393 renal
[40] = system: SF-268 CNS
[41] = system: SF-295 CNS
[42] = system: SF-539 CNS
[43] = system: SK-MEL-2 melanoma
[44] = system: SK-MEL-28 melanoma
[45] = system: SK-MEL-5 melanoma
[46] = system: SK-OV-3 ovarian
[47] = system: SN12C renal
[48] = system: SNB-19 CNS
[49] = system: SNB-75 CNS
[50] = system: SNB-78 CNS
[51] = system: SR leukemia
[52] = system: SW-620 colon
[53] = system: TK-10 renal
[54] = system: U251 CNS
[55] = system: UACC-257 melanoma
[56] = system: UACC-62 melanoma
[57] = system: UO-31 renal
[58] = system: XF 498 CNS
[59] = system: RXF-631 renal

SMILES: N#CNC(=NCc1ccccc1)NCc1ccccc1
- TGI [1]: > 100 µM
- TGI [2]: > 100 µM
- TGI [3]: > 100 µM
- TGI [4]: > 100 µM
- TGI [5]: > 100 µM
- TGI [6]: > 100 µM
- TGI [7]: > 57.3 µM
- TGI [8]: > 71 µM
- TGI [9]: > 53.4 µM
- TGI [10]: > 56 µM
- TGI [11]: > 100 µM
- TGI [12]: > 100 µM
- TGI [13]: 33.6 µM
- TGI [14]: > 55.8 µM
- TGI [15]: > 100 µM
- TGI [16]: > 100 µM
- TGI [17]: > 100 µM
- TGI [18]: > 100 µM
- TGI [19]: > 100 µM
- TGI [20]: > 100 µM
- TGI [21]: > 100 µM
- TGI [22]: > 100 µM
- TGI [23]: > 100 µM
- TGI [24]: > 100 µM
- TGI [25]: > 100 µM
- TGI [26]: > 100 µM
- TGI [27]: > 96.3 µM
- TGI [28]: > 100 µM
- TGI [29]: > 100 µM
- TGI [30]: > 100 µM
- TGI [31]: > 100 µM
- TGI [32]: > 100 µM
- TGI [33]: > 100 µM
- TGI [34]: > 100 µM
- TGI [35]: > 100 µM
- TGI [36]: > 100 µM
- TGI [37]: > 100 µM
- TGI [38]: > 100 µM
- TGI [39]: > 89 µM
- TGI [40]: 48.6 µM
- TGI [41]: > 100 µM
- TGI [42]: > 100 µM
- TGI [43]: > 100 µM
- TGI [44]: > 100 µM
- TGI [45]: > 100 µM
- TGI [46]: > 100 µM
- TGI [47]: > 100 µM
- TGI [48]: > 100 µM
- TGI [49]: > 100 µM
- TGI [50]: > 100 µM
- TGI [51]: 69 µM
- TGI [52]: > 62.7 µM
- TGI [53]: > 100 µM
- TGI [54]: > 70.7 µM
- TGI [55]: > 100 µM
- TGI [56]: > 100 µM
- TGI [57]: > 100 µM
- TGI [58]: > 100 µM

SMILES: CN1C(=O)N(C)C2(O)c3ccccc3C(=O)C12O (centres undefined)
- TGI [1]: > 100 µM
- TGI [2]: > 100 µM
- TGI [3]: > 100 µM
- TGI [4]: > 100 µM
- TGI [5]: > 100 µM
- TGI [6]: > 100 µM
- TGI [7]: > 100 µM
- TGI [8]: > 100 µM
- TGI [9]: > 100 µM
- TGI [10]: > 100 µM
- TGI [11]: > 100 µM
- TGI [12]: > 100 µM
- TGI [13]: > 100 µM
- TGI [14]: > 100 µM
- TGI [16]: > 100 µM
- TGI [17]: > 100 µM
- TGI [19]: > 100 µM
- TGI [20]: > 100 µM
- TGI [21]: > 100 µM
- TGI [22]: > 100 µM
- TGI [23]: > 100 µM
- TGI [24]: > 100 µM
- TGI [25]: > 100 µM
- TGI [26]: > 100 µM
- TGI [27]: > 100 µM
- TGI [28]: > 100 µM
- TGI [29]: > 100 µM
- TGI [30]: > 100 µM
- TGI [31]: > 100 µM
- TGI [32]: > 100 µM
- TGI [33]: > 100 µM
- TGI [34]: > 100 µM
- TGI [35]: > 100 µM
- TGI [36]: > 100 µM
- TGI [37]: > 100 µM
- TGI [38]: > 100 µM
- TGI [39]: > 100 µM
- TGI [59]: > 100 µM
- TGI [40]: > 100 µM
- TGI [41]: > 100 µM
- TGI [42]: > 100 µM
- TGI [43]: > 100 µM
- TGI [44]: > 100 µM
- TGI [45]: > 100 µM
- TGI [46]: > 100 µM
- TGI [47]: > 100 µM
- TGI [48]: > 100 µM
- TGI [49]: > 100 µM
- TGI [50]: > 100 µM
- TGI [51]: > 100 µM
- TGI [52]: > 100 µM
- TGI [53]: > 100 µM
- TGI [54]: > 100 µM
- TGI [55]: > 100 µM
- TGI [56]: > 100 µM
- TGI [57]: > 100 µM
